Patent publication US10912776B2, “Methods of treating cancer” (Corvus Pharmaceuticals, Inc., priority 2015, dated 2021)
Where “and” joins values, the source holds several entries; their conditions need not be identical. Identical values can stand only once. Entries after “also recorded” stand apart in the source; their conditions may differ.

Key:
MC38 cells = test: XTT cell viability/proliferation, MC38; type: cell-based, mouse; conditions: 10 µM to 1 pM, 24 hours
Description: (§1) Staurosporine, a well-characterized inducer of apoptosis, was included as a positive control for cell death. Cell viability/proliferation was measured by XTT. In this assay, XTT salts are cleaved by metabolically active (viable) cells, thereby producing a colorimetric change in the culture media that can be quantified by measuring absorbance at 405 nm and 620 nm on a spectrophotometer.

CT26 cells = test: XTT cell viability/proliferation, CT26; type: cell-based, mouse; conditions: 10 µM to 1 pM, 24 hours
Description: as §1

EL4 cells [1] = test: XTT cell viability/proliferation, EL4; type: cell-based, mouse; conditions: 10 µM to 1 pM, 24 hours
Description: as §1

EL4 cells [2] = test: Syngeneic EL4 mouse lymphoma model; type: in vivo; conditions: 10, 30, 100 mg/kg daily oral gavage
Description: Syngeneic C57BL/6 female mice (8-10 weeks old) were injected (via subcutaneous route) with EL4 cells.

MC38 colon cancer cells = test: Syngeneic MC38 mouse colon carcinoma model, CPI-444 dose response and rechallenge; type: in vivo
Text: 100% protected from rechallenge. […] These mice were challenged with the new engraftment of MC38 tumor cells.
MC38 colon cancer cells were subcutaneously injected onto the backs of syngeneic C57BL/6 mice.

[3] = tested on: MC38 mouse colon cancer cells; test: Syngeneic MC38 mouse colon cancer model, CPI-444 in combination with anti-PD-L1; type: in vivo
Text: Combo eliminates tumors in 50% of mice. […] Treatment continued for 12 days.
FIGS. 16A and 16B: MC38 Model: Established tumors eliminated in 8/9 mice.
Treatment continued for more than 9 days (FIG. 23C). […] T cell depletion was verified by flow analysis. FIGS. 23A and 23B show the tumor volume at different time points since engraftment for the dosing cohorts.
Treatment continued for 12 days. […] T cell depletion was verified by flow analysis. FIGS. 23A and 23B show tumor volume at different time points since engraftment for the dosing cohorts.
Treatment continued for more than 9 days. […] T cell depletion was verified by flow analysis. FIGS. 23A and 23B show tumor volume at different time points since engraftment for the dosing cohorts.

[4] = Phase 1/1b clinical trial in solid tumor patients (safety, efficacy, blood biomarkers); type: in vivo, human
Description: FIGS. 19A and 19B: T Cell activation in treated subjects. Whole blood was collected on Day 1 of Cycles 1, 2, 4 & 8 for flow analysis. The percentage of CD4 and CD8 T cells that stained PD-1+(FIG. 19A) or CD45RA− (memory/effector cells) (FIG. 19B) is shown. Each line represents a single subject across time.
Whole blood was collected on Day 1 of Cycles 1 and 2 and PBMCs were prepared. DNA was extracted from PBMCs and sequenced for TCRβ repertoire by Adaptive Biotechnologies. […] Morisita Index measures T cell repertoir similarity comparing pre- and post-dose PBMCs. A Morisita Index of 1 is equal to identity, indicating no longitudinal change. Morisita Index distribution in single agent and combination cohorts (FIG. 20B). Graph showing Morisita Index by cohort (FIG. 20C). […] Changes were driven predominantly by TCR clone expansion (clonality).
After a dose selection stage, pts are treated in 10 disease specific cohorts (5 single agent and 5 combination). Cohorts may be expanded based on response criteria: complete response, partial response or stable disease (SD). Biomarkers are evaluated including immune cells by flow cytometry in peripheral blood and pre/post treatment tumor biopsies as well as adenosine pathway modulation by immunohistochemistry and gene expression.
In step 1 of the trial, patients were dosed with either 100 mg BID for 14 days out of a 28 day cycle, 100 mg BID for 28 days, 200 mg QD for 14 days or 50 mg or 100 mg BID for 14 days in combination with […]® (840 mg Q2W). Pharmacodynamic analysis was conducted on peripheral blood cells to inform dose selection. Step 1 of Phase1/1b was fully enrolled (n=48) and dose was selected (100 mg BID) based on pharmacodynamic analysis of A2AR pathway.

[5] = non-oncology indications; 75 subjects; cited from earlier work
A2AR [6] = biological target: T1, A2AR (Homo sapiens, UniProt P29274); test: pERK levels in human CD4+ T cells after TCR cross-linking; conditions: NECA 1 μM
T1 sequence (P29274 whole entry): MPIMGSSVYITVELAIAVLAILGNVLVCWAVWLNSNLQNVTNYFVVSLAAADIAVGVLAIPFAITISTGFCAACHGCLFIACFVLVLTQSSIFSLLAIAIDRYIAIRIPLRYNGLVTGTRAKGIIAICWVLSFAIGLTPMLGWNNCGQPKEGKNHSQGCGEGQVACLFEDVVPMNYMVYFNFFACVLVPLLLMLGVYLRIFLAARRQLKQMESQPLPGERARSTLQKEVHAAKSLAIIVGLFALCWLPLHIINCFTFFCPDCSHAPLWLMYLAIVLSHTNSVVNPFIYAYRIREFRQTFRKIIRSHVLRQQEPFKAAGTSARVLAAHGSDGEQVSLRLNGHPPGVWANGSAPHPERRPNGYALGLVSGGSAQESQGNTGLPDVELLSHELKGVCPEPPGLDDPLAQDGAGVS

A2AR [7] = biological target: T1, A2AR; test: NECA-induced phospho-CREB in fresh PBMCs (B cell population); conditions: primarily B cell population
[8] = tested on: CT26 mouse colon cancer cells; conditions: CPI-444 100 mg/kg oral; anti-PD-1 100 ug/mouse i.p.
Description: CT26 mouse colon cancer cells were engrafted onto the back of syngeneic male Balb/c mice. […] Treatment continued for 12 days.

A2AR [9] = biological target: T1, A2AR; test: cAMP production in primary human T cells stimulated with NECA (LANCE Ultra cAMP); type: cell-based; set-up: Blood samples were derived from patients and processed using the following protocol; endogenous in cells; host or cells: whole blood B cells and T cells of treated subjects
Description: Adenosine signaling through A2AR leads to increases in the levels of cAMP.
T cells were isolated from human PBMC by negative selection and activated via CD3/CD28 stimulation for 48 hours to induce A2AR expression. Stimulated T cells were then “rested” for 24 hours by removal of CD3/CD28 stimulation in order to minimize background levels of cAMP.

A2AR [10] = biological target: T1, A2AR; test: IL-2 and IFNγ secretion from activated primary human PBMCs (AlphaLISA); type: cell-based; set-up: Blood samples were derived from patients and processed using the following protocol; endogenous in cells; host or cells: whole blood B cells and T cells of treated subjects; conditions: CPI-444 1 μM; NECA or CGS21680 1 μM; anti-CD3/anti-CD28 48 hours
Description: Purified anti-CD3 and anti-CD28 monoclonal antibodies (1 ug/ml) were then added to activate T cells for 48 hours.
Purified anti-CD3 and anti-CD28 monoclonal antibodies (1 ug/ml) were then added to activate T cells for 48 hours. In this study, AlphaLISA assays (PerkinElmer) analyzed on an EnVision MultiLabel Reader were used to measure cytokine release according to the manufacturer's instructions.

A2AR [11] = biological target: T1, A2AR; test: NECA-induced pCREB in whole blood B cells and T cells of treated subjects (flow cytometry); type: in vivo; set-up: Blood samples were derived from patients and processed using the following protocol; endogenous in cells; host or cells: whole blood B cells and T cells of treated subjects
Description: Control samples were treated with phorbol myristate acetate (PMA).
[…] control samples were treated with phorbol myristate acetate (PMA).
On day 14, blood was collected prior to dosing (0 hr, trough) and for a time course post-dose (1.5, 3, 5.5, 8 hr) (FIGS. 26-28). The level of signaling was determined and the percent inhibition on Day 14 compared to Day 1 pre-treatment was calculated.

## Cc1ccc(-c2nc(N)nc3c2nnn3Cc2cccc(COC3CCOC3)n2)o1 (stereo not drawn) [CPI-444]
MC38 cells
  Specific Absorbance (XTT cell viability/proliferation): No significant decrease in the Specific Absorbance
CT26 cells
  Specific Absorbance (XTT cell viability/proliferation): No significant decrease in the Specific Absorbance
EL4 cells [1]
  Specific Absorbance (XTT cell viability/proliferation): No significant decrease in the Specific Absorbance
EL4 cells [2]
  tumor growth in regional lymph nodes (number and size of enlarged nodes): significant dose-dependent inhibition of tumor growth within regional lymph nodes; also recorded: significant, dose-dependent decrease in the number and size of enlarged regional lymph nodes; also recorded: Inhibits EL4 Tumor Growth In Regional Lymph Nodes
MC38 colon cancer cells; 1 mg/kg daily oral gavage for 28 days
  tumor growth: did not inhibit tumor growth
MC38 colon cancer cells; 10 mg/kg daily oral gavage for 28 days
  tumor growth: significantly inhibits the growth; also recorded: significant inhibition of tumor growth
MC38 colon cancer cells; 100 mg/kg daily oral gavage for 28 days
  tumor growth: significantly inhibits the growth; also recorded: significant inhibition of tumor growth
MC38 colon cancer cells; CPI-444 dose response study
  mice with tumors eliminated: 30%
MC38 colon cancer cells; all cohorts (1, 10, 100 mg/kg)
  complete tumor regression: complete tumor regression was observed in a subset of mice within all cohorts
MC38 colon cancer cells; cured mice, no additional CPI-444 treatment
  tumor growth after rechallenge with MC38 cells: fully inhibited; also recorded: fully rejected in all 9 mice
MC38 colon cancer cells; daily CPI-444 1, 10, 100 mg/kg
  inhibition of tumor growth (dose response): dose-dependent inhibition of tumor growth; also recorded: Inhibits Growth of MC38 Tumors
MC38 colon cancer cells; new engraftment of MC38 cells, no additional CPI-444 treatment
  mice protected from rechallenge: 100%
MC38 colon cancer cells; nine mice with complete tumor growth inhibition
  reoccurrence during additional 6 weeks monitoring: No tumor growth was observed
[3]; CPI-444 100 mg/kg from Day 0, anti-PD-L1 200 ug/mouse
  tumor eradication: not completely eradicated
[3]; CPI-444 100 mg/kg oral from Day 0 for 12 days, anti-PD-L1 mAb 10F.9G2 200 ug/mouse i.p. days 7, 10, 13, 16
  tumor growth: inhibition of tumor growth
[3]; CPI-444 100 mg/kg, anti-PD-L1 200 ug/mouse
  dependence of efficacy on CD8+ T cells (T cell depletion with Anti-mCD4 / Anti-mCD8): CD8+ T cells are required for the efficacy
[3]; FIGS. 14A and 14B title
  mice with tumors eliminated: 30%
[3]; mouse, in vivo
  levels of immune checkpoints (GITR, OX40, LAG3) on tumor infiltrating lymphocytes and circulating T cells: modulated
[4]; 2 pts (1 combination and 1 single agent), unconfirmed at 2 months
  first efficacy assessment by CT: both demonstrated SD
[4]; 7 pts treated to date
  tolerability / treatment related adverse events: well tolerated with no Grade 3 or 4 treatment related adverse events; also recorded: well tolerated
[4]; Nivolumab-refractory lung cancer patient, 100 mg po BID×28 days/cycle
  tumor response: Tumor regression
[4]; TCRβ sequencing of PBMCs, Day 1 of Cycles 1 and 2
  TCR repertoire changes in peripheral blood: TCR repertoire changes were induced; also recorded: robust changes in TCR repertoire in some patients
[4]; flow analysis of whole blood
  activated (PD-1+) CD8 cell frequencies in blood: Increases in activated CD8 cell frequencies
  memory (CD45RA−) cell frequencies in blood: increases
[4]; single agent CPI-444
  T cell clone expansion / clonality: Expansion of pre-existing and new T cell clones; also recorded: increased clonality
[4]; the two pts with SD
  increase in PD-1+CD8+ cells in peripheral blood compared to baseline: 1.7 fold and 2.4 fold
[5]
  tolerability: well tolerated; also recorded: well tolerated with no significant adverse events noted
A2AR [6]
  pERK levels / ERK signaling in CD4+ T cells in the presence of NECA: restored pERK levels in a dose-dependent manner; also recorded: Restores pERK
A2AR [7]
  inhibition of NECA-induced CREB phosphorylation: completely inhibited; also recorded: Prevents pCREB Induction in B Cells
[8]
  tumor eradication / elimination: not completely eradicated
A2AR [9]; FIG. 6
  cAMP production upon NECA stimulation, CPI-444 dose dependence: prevented cAMP production upon NECA stimulation in a dose-dependent manner; also recorded: Inhibits cAMP Production
A2AR [9]; all levels of NECA tested (10^-5 to 10^-9 M), 10 minutes
  production of cAMP upon NECA treatment: completely blocked the production of cAMP
A2AR [10]
  IFNγ secretion in presence of A2AR agonist: restored IL-2 and IFNγ secretion back to levels observed in the absence of exogenous adenosine signaling
  IL-2 secretion in presence of A2AR agonist: restored IL-2 and IFNγ secretion back to levels observed in the absence of exogenous adenosine signaling
A2AR [11]; 50 mg BID, Day 14
  inhibition of NECA-induced pCREB: Variable inhibition; also recorded: not high enough for sustained inhibition
A2AR [11]; 100 mg BID
  change in pCREB percent inhibition between trough (0 hr) and peak (3 hr): Little fluctuation from trough to peak
A2AR [11]; 100 mg BID single agent, Day 14
  patients with complete and sustained inhibition of NECA-induced pCREB: 7 of 7
A2AR [11]; 100 mg BID, Day 14
  inhibition of pCREB / A2AR pathway: high pCREB inhibition at trough and near complete inhibition after taking their morning dose; also recorded: highest pCREB inhibition at trough and near complete inhibition after taking their morning dose
A2AR [11]; 200 mg QD, Day 14
  inhibition of NECA-induced pCREB: Variable inhibition; also recorded: achieves high peak levels but is not maintained at trough; also recorded: partial inhibition; also recorded: attenuated
A2AR [11]; B cells
  CPI-444 plasma levels with near complete inhibition of pCREB in B cells: greater than 2,000 ng/mL
A2AR [11]; T cells
  CPI-444 plasma levels with near complete inhibition of pCREB in CD4+ T cells: greater than 2,000 ng/mL
A2AR [11]; plasma CPI-444
  CPI-444 exposures at which the A2AR pathway is completely inhibited: greater than 2000 ng/mL
